Test results as given in paper PMC10907298 (Nature chemical biology, 2023).
“And” between values parts separate entries of the source, which are not always exact repeats. Identical values can stand only once.

How the values were obtained:
BMDM, mSTING Indel/Indel = experiment: IP10 induction in bone marrow-derived macrophages; format: cell-based, mouse; conditions: 50μM, n=1
BMDM, WT mSTING = experiment: IP10 induction in bone marrow-derived macrophages; format: cell-based, mouse; conditions: 50μM, n=1
[1] = system: BMDM, human STING knock-in; experiment: IP10 induction in bone marrow-derived macrophages; format: cell-based, mouse; conditions: 50μM, n=1
[2] = molecular target: TXNDC12 Thioredoxin domain-containing protein 12 (Homo sapiens, UniProt O95881); experiment: photoaffinity labeling and competition chemoproteomics in THP-1 cells; format: binding
Sequence of TXNDC12 Thioredoxin domain-containing protein 12 (O95881 27-172): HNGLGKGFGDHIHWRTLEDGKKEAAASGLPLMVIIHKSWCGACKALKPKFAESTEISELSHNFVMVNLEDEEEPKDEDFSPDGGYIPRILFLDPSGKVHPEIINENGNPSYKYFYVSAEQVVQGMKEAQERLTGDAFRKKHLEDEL

STING(TMEM173) = STING(TMEM173) (Homo sapiens, UniProt Q86WV6, G230A/R293Q/R71H); experiment: as above; format: binding
Sequence of STING(TMEM173) (Q86WV6 whole entry R71H/G230A/R293Q): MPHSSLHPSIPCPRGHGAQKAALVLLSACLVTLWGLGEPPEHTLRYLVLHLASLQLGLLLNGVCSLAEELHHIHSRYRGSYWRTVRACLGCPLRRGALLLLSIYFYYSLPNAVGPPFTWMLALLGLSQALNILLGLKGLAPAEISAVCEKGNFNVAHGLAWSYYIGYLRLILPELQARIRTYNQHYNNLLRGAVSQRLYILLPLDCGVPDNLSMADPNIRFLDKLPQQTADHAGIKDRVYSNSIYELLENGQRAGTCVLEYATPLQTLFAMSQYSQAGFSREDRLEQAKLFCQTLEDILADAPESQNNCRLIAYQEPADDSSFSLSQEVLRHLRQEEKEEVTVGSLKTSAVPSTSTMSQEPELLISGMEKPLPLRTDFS

RABL6 Rab-like protein 6 = RABL6 Rab-like protein 6 (Homo sapiens, UniProt Q3YEC7); experiment: as above; format: binding
Sequence of RABL6 Rab-like protein 6 (Q3YEC7 whole entry): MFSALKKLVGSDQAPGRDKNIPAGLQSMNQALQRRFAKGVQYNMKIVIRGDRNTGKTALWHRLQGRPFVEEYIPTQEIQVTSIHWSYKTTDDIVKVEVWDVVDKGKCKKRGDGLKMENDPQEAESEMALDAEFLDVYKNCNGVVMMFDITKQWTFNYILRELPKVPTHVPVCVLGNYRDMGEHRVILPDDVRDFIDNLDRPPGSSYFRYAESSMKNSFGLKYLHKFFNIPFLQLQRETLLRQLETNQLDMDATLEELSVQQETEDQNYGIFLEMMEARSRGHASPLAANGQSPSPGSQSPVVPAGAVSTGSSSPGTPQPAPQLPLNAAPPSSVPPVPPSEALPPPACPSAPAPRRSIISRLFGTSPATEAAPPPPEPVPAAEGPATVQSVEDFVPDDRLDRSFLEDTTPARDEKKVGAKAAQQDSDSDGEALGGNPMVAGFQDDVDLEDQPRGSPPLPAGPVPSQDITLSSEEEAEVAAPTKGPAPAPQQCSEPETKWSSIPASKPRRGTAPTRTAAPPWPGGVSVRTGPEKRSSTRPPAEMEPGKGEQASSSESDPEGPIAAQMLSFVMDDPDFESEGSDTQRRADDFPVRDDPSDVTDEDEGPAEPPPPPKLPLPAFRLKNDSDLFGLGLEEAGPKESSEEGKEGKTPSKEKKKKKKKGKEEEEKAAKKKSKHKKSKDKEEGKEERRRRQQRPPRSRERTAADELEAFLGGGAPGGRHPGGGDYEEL

[3] = molecular target: SLC25A13 Calcium-binding mitochondrial carrier protein Aralar2 (Homo sapiens, UniProt Q9UJS0); experiment: as above
Sequence of SLC25A13 Calcium-binding mitochondrial carrier protein Aralar2 (Q9UJS0 whole entry): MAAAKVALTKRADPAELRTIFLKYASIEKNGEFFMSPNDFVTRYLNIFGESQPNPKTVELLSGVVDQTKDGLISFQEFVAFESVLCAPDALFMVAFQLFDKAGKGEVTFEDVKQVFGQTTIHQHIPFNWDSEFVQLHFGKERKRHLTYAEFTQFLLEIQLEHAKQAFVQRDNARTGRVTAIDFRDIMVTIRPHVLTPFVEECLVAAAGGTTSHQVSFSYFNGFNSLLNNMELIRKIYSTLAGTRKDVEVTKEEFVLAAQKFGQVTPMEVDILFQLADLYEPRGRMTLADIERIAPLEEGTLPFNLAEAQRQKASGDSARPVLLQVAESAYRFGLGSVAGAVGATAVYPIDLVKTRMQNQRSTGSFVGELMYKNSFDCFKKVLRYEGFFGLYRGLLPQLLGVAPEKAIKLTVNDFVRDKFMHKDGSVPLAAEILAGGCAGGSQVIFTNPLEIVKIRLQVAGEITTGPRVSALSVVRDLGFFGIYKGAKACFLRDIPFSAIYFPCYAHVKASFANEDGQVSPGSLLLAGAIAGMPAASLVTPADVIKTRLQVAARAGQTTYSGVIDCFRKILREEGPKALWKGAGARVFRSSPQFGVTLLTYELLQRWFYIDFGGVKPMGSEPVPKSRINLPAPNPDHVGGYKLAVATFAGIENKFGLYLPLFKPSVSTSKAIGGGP

SYNE2 Nesprin-2 = SYNE2 Nesprin-2 (Homo sapiens, UniProt Q8WXH0); experiment: as above; format: binding
human STING = human STING (Homo sapiens, UniProt Q86WV6, G230A/R293Q/R71H); experiment: THP1-Dual ISRE-Luc reporter gene assay (primary screen and dose response); conditions: for THP1-Dual reporter activity: single replicates (n=2); for AC50: THP1-Dual ISRE-Luc Assay
Sequence of human STING (Q86WV6 whole entry R71H/G230A/R293Q): as the sequence (Q86WV6 whole entry R71H/G230A/R293Q) above

[4] = molecular target: hSTING(1–153)–mSTING(153–378) chimera (Homo sapiens, UniProt Q86WV6, A215V/A300E/A302V/A313V/A318T/A350V/D237N/D297E/D320G/E174G/E362R/E369D/G230I/G344N/H185L/H232R/I244V/K224M/K347M/K370Q/L189M/L202F/L222R/L247I/L333I/L346P/M214V/M357L/Q196R/Q276K/Q306R/R191S/R253P/S275A/S321N/S345A/S353P/T181M/T229N/T256V/T354P/T356V/V194G/V258I/V343M/V351A/Y182F/Y186H/Y274D); experiment: ISRE reporter assay with STING co-transfection in HEK293T cells; format: cell-based, human/mouse; conditions: for ISRE reporter activity, mean: h(1-153)/m(153-378)STING, Figure S1f
Sequence of hSTING(1–153)–mSTING(153–378) chimera (Q86WV6 with tags, fused parts or gaps with the stated changes): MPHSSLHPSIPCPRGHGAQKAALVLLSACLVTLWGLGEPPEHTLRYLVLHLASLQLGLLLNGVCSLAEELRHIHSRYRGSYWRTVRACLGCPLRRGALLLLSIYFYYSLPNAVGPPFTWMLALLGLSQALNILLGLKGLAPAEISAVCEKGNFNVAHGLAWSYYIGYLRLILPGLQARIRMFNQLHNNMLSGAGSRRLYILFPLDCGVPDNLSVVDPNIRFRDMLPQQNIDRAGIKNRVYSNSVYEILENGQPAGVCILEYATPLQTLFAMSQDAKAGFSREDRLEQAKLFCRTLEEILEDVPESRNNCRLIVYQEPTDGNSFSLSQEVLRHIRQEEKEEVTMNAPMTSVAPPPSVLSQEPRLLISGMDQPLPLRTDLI

human STING (WT) = human STING (WT) (Homo sapiens, UniProt Q86WV6); experiment: as above; format: cell-based; conditions: hSTING, Figure S1f
Sequence of human STING (WT) (Q86WV6 whole entry): as the sequence (Q86WV6 whole entry R71H/G230A/R293Q) above, with H71R, A230G, Q293R counted along it

Nc1nc2c(ncn2[C@@H]2O[C@@H]3COP(=O)(O)O[C@H]4[C@@H](O)[C@H](n5cnc6c(N)ncnc65)O[C@@H]4COP(=O)(O)O[C@@H]2[C@@H]3O)c(=O)[nH]1 [cGAMP, 2’,3’-cGMP-AMP, reference compound]
IP10 (BMDM, mSTING Indel/Indel): 0 pg/mL | IP10 (BMDM, WT mSTING): 3440.25 pg/mL | IP10 ([1]; BMDM hSTING+/+): 2945 pg/mL | IP10 ([1]; BMDM hSTING+/indel): 1331.5 pg/mL

C#CCCC1(CCC(=O)NCCCS(=O)(=O)NC(=O)c2ccc(NCc3ccc(C4(C(C)(C)C)OCC(C)(C)CO4)cc3)c(OC)c2)N=N1 [NVS-STG4]
Abundance Ratio (log2): (DMSO) / (NJC652) [2]: -0.18 | enrichment of STING(TMEM173) over no probe control (STING(TMEM173); 1 μM probe, pull-down): over 2 fold | Abundance Ratio (log2): (DMSO) / (NJC652) (STING(TMEM173); TMEM173): -1.82 | Abundance Ratio (log2): (DMSO) / (NJC652) (RABL6 Rab-like protein 6): 0.01 | Abundance Ratio (log2): (DMSO) / (NJC652) [3]: -0.21 | Abundance Ratio (log2): (DMSO) / (NJC652) (SYNE2 Nesprin-2): 0.26 | THP1-Dual reporter activity (human STING; 97.7 nM): -53.887 and -41.218 | THP1-Dual reporter activity (human STING; 195 nM): -52.59 and -42.841 | THP1-Dual reporter activity (human STING; 391 nM): -38.43 and -29.964 | THP1-Dual reporter activity (human STING; 781 nM): -39.736 and -25.431 | THP1-Dual reporter activity (human STING; 1563 nM): -32.277 and -48.463 | THP1-Dual reporter activity (human STING; 3125 nM): -20.873 and -28.245 | THP1-Dual reporter activity (human STING; 6250 nM): 1623.13 and 1111.27 | THP1-Dual reporter activity (human STING; 12500 nM): 4114.59 and 3953.84 | THP1-Dual reporter activity (human STING; 25000 nM): 2243.38 and 2653.78 | AC50 (human STING): 6.9 µM

Cc1ccc2c(=O)c3cccc(CC(=O)O)c3oc2c1C [DMXAA, 5,6-dimethylxanthenone-4-acetic acid, reference compound]
ISRE reporter activity, mean ([4]; Log[μM] 0): 0.7 | ISRE reporter activity, mean ([4]; Log[μM] 0.3): 0.7 | ISRE reporter activity, mean ([4]; Log[μM] 0.6): 0.7 | ISRE reporter activity, mean ([4]; Log[μM] 0.9): 0.9 | ISRE reporter activity, mean ([4]; Log[μM] 1.2): 9.4 | ISRE reporter activity, mean ([4]; Log[μM] 1.5): 82.5 | ISRE reporter activity, mean ([4]; Log[μM] 1.8): 101.1 | ISRE reporter activity, mean ([4]; Log[μM] 2.1): 106.7 | ISRE reporter activity, mean ([4]; Log[μM] 2.4): 109.5 | STING activation in words ([4]; hSTING TMD–mSTING LBD chimera): responded fully | ISRE reporter activity, mean (human STING (WT); Log[μM] 0): 1.3 | ISRE reporter activity, mean (human STING (WT); Log[μM] 0.3): 1.4 | ISRE reporter activity, mean (human STING (WT); Log[μM] 0.6): 1.2 | ISRE reporter activity, mean (human STING (WT); Log[μM] 0.9): 1.3 | ISRE reporter activity, mean (human STING (WT); Log[μM] 1.2): 1 | ISRE reporter activity, mean (human STING (WT); Log[μM] 1.5): 1.6 | ISRE reporter activity, mean (human STING (WT); Log[μM] 1.8): 1.2 | ISRE reporter activity, mean (human STING (WT); Log[μM] 2.1): 1.4 | ISRE reporter activity, mean (human STING (WT); Log[μM] 2.4): 1.5 | ISRE reporter activity, mean (human STING (WT); Log[μM] 2.7): 1.9

CNc1ccccc1CS(=O)(=O)NC(=O)c1ccc(NCc2ccc(C3(C(C)(C)C)OCC(C)(C)CO3)cc2)c(OC)c1 [NVS-STG3]
competition of NVS-STG4 labeling in words (STING(TMEM173); 20 μM competitor, 1 μM NVS-STG4): competed | THP1-Dual reporter activity (human STING; 97.7 nM): -1.082 and 21.604 | THP1-Dual reporter activity (human STING; 195 nM): -3.144 and -12.05 | THP1-Dual reporter activity (human STING; 391 nM): -15.339 and 25.944 | THP1-Dual reporter activity (human STING; 781 nM): 62.36 and 63.63 | THP1-Dual reporter activity (human STING; 1563 nM): 1502.2 and 1735.82 | THP1-Dual reporter activity (human STING; 3125 nM): 6139.8 and 5609.9 | THP1-Dual reporter activity (human STING; 6250 nM): 8825.5 and 7956 | THP1-Dual reporter activity (human STING; 12500 nM): 8733.31 and 7877.19 | AC50 (human STING): 2.7 µM
